# Results published in patent US20110243846A1, “BENZOTHIAZOLE AMIDES FOR DETECTION OF AMYLOID BETA” (priority 2008, published 2011).
# Tested on: Aβ plaques in cortex sections of Alzheimer's disease patients
# Test: Autoradiographical analysis of binding to human brain sections
# Details: F-18 labelled compound; for Autoradiographical analysis of binding to cryosections from cortex: cryosections from cortex of AD patients vs controls without Aβ plaques (HC/FTD)
# Source text: Fresh frozen as well as paraffin embedded sections of the frontal lobe from Alzheimer's dementia patients, frontotemporal dementia patients and age matched controls were used for the study. Frozen sections, sliced at 18 μm thickness on a cryostate (Leica, Germany) and paraffin sections, sliced on a sliding microtom (Leica) at a thickness of 6 μm, were mounted onto glass slides (Superfrost Plus, Fa.Menzel, Braunschweig Germany). Frozen sections were allowed to adhere to the slides for several nights at −20° C. The paraffin sections were deparaffinized using routine histological methods. For binding studies sections were incubated with the F-18 labeled test compound at 10 Bq/μl diluted in 25 mM Hepes buffer, pH 7.4, 0.1% (BSA) (200-300 μl/slide) for 1.5 hour at room temperature in a humidified chamber. For blocking experiments a 1000-fold access of the unlabeled test substance was added to the incubation mixture. After hybridization, sections were washed four times with Hepes buffer, 0.1% BSA (or alternatively two times with 40% ethanol) and finally dipped two times into dest. water for 10 sec. The air-dried sections were exposed to imaging plates and signals were detected by a phosphoimager device (Fuji BAS5000).
SMILES,Autoradiographical analysis of binding to cryosections from cortex,Autoradiographical analysis of binding to paraffine-sections from cortex (paraffine-sections from cortex of AD patients vs controls without Aβ plaques (HC/FTD))
"COc1ccc2nc(NC(=O)c3cc([18F])ccn3)sc2c1 [compound 2c, 4-(^18F)fluoro-N-(6-methoxy-1,3-benzothiazol-2-yl)pyridine-2-carboxamide]",Specific binding in plaque-rich regions of AD samples,–
"COc1ccc2nc(NC(=O)c3cccc([18F])n3)sc2c1 [compound 3c, 6-[^18F]-fluoro-N-(6-methoxy-1,3-benzothiazol-2-yl)pyridine-2-carboxamide]",–,Specific binding in plaque-rich regions of AD samples
"COc1ccc2nc(NC(=O)c3ccc([18F])cc3)sc2c1 [compound 1f, 4-(^18F)fluoro-N-(6-methoxy-1,3-benzothiazol-2-yl)benzamide]",Specific binding in plaque-rich regions of AD samples,–
